According to article PMC6095626, “Screening of the Pathogen Box for inhibitors with dual efficacy against Giardia lamblia and Cryptosporidium parvum” (PLoS Neglected Tropical Diseases, 2018):

How the values were obtained:
[1] = system: G. lamblia trophozoites (luciferase expressing, WBC6); assay: microbe, parasite or virus in culture; assay type: cell-based, Giardia lamblia; settings: for Giardia (16 uM) Mean % inhibition: initial Pathogen Box screen, single concentration 16 µM, inhibition compared to DMSO wells
Protocol: Trophozoites were harvested by chilling cultures on ice for 30 minutes and plated by adding 150 μL per well at a concentration of 250,000 cells/mL. Metronidazole (Sigma, St. Louis, MO) was used as a control and was serially diluted 1:2 from 40 μM to 0.04 μM and 150 μL was added to the 150 μL of the G. lamblia trophozoites. Plates were covered in plastic low-evaporation lids, sealed in individual anaerobic BD GasPak Bio-Bags (Becton Dickinson, San Jose, CA) and incubated at 37 °C for 24 hours. […] A duplicate plate was concurrently set up and assayed using a MOXI Z Mini Automated Cell Counter Kit (Orflo, Ketchum, ID). Results obtained from the bioluminescence assay and the MOXI counter data were compared to evaluate their correlation to each another. Albendazole (Sigma, St. Louis, MO), an alternative giardiasis therapeutic, was assayed in concentrations from 4 μM to 0.004 μM with only the luciferase expressing G. lamblia cells. […]

[2] = system: C. parvum (UGA1 Nluc expressing strain in HCT-8 cells); assay: microbe, parasite or virus in culture; assay type: cell-based, Cryptosporidium parvum; settings: for Crypto (10 uM) Mean % inhibition: initial Pathogen Box screen, single concentration 10 µM, inhibition compared to DMSO wells
Protocol: Growth inhibition and EC50 determination assays were performed using UGA1 Nluc expressing C. parvum strain in HCT-8 cells (ATCC^©, Manassas, VA) as previously described. HCT-8 cells were inoculated onto 96-well plates and allowed to grow for 48 hours to 90–100% confluence and then treated with single concentration (10 μM) or serially diluted compounds prior to oocyst infection. C. parvum oocysts were incubated for 10 minutes in 10% bleach at room temperature and then washed with DPBS. […] The cell monolayers were lysed for 1 hour before adding Nano-Glo® luciferase reagent (Promega, Madison, WI), and measuring relative luminescence units (RLU) in an EnVision Plate Reader (Perkin Elmer, Waltham, MA). Several parameters, including reproducibility and reliability, were previously evaluated to optimize this assay for low and high-throughput (HTP) screening of small molecule compounds against C. parvum. EC50 values were calculated using Prism 7 software (GraphPad Software, San Diego, CA).
C. parvum screening against the Pathogen Box compounds was performed as previously described starting at a concentration of 10 μM [23].

O=C(NCCN1CCCC1)c1cc(NCCN2CCOCC2)nc2ccc(Cl)cc12 [MMV634140]
Giardia (16 uM) Mean % inhibition [1]: 27%
Crypto (10 uM) Mean % inhibition [2]: X* (Mean or standard deviation are negative but not significantly different from the control to be a growth promoter)

Nc1ncnc2n[nH]c(Cc3cccc4ccccc34)c12 [MMV688469]
Giardia (16 uM) Mean % inhibition [1]: 9%
Crypto (10 uM) Mean % inhibition [2]: 57%

CC(C)=CCC/C(C)=C\CNCCNC1C2CC3CC(C2)CC1C3 (centres unmarked) [MMV687273]
Giardia (16 uM) Mean % inhibition [1]: 89%
Crypto (10 uM) Mean % inhibition [2]: 35%

NCCC[C@@](N)(C(=O)O)C(F)F [MMV001625]
Giardia (16 uM) Mean % inhibition [1]: 16%
Crypto (10 uM) Mean % inhibition [2]: 36%

O=C(NCc1nnc2n1CCCCC2)c1ccc(-c2ccc(F)cc2)o1 [MMV688796]
Giardia (16 uM) Mean % inhibition [1]: 52%
Crypto (10 uM) Mean % inhibition [2]: 44%

COC(=O)c1c(NC(=O)c2c(F)c(F)c(F)c(F)c2F)sc2c1CCCCC2 [MMV461553]
Giardia (16 uM) Mean % inhibition [1]: 33%
Crypto (10 uM) Mean % inhibition [2]: 49%

Nc1ncc(-c2ccc(C(F)(F)F)nc2)cc1-c1ccc(C(F)(F)F)nc1 [MMV668727]
Giardia (16 uM) Mean % inhibition [1]: 0.605%
Crypto (10 uM) Mean % inhibition [2]: 82%

CCCn1c(CNc2ccccc2O)nc2ccccc21 [MMV676445]
Giardia (16 uM) Mean % inhibition [1]: 13%
Crypto (10 uM) Mean % inhibition [2]: X* (Mean or standard deviation are negative but not significantly different from the control to be a growth promoter)

O=C(Nc1cnc2ccccc2c1)c1cccc(-n2cnnn2)c1 [MMV084864]
Giardia (16 uM) Mean % inhibition [1]: 63%
Crypto (10 uM) Mean % inhibition [2]: 34%

c1ccc(Oc2ccc(-c3cc(CN4CCOCC4)[nH]n3)cc2)cc1 [MMV676161]
Giardia (16 uM) Mean % inhibition [1]: 33%
Crypto (10 uM) Mean % inhibition [2]: X* (Mean or standard deviation are negative but not significantly different from the control to be a growth promoter)

Cc1ccc2cc(C3NC(=O)c4ccccc4N3)c(Cl)nc2c1 (centres unmarked) [MMV019807]
Giardia (16 uM) Mean % inhibition [1]: 24%
Crypto (10 uM) Mean % inhibition [2]: 79%

CS(=O)(=O)Cc1nc2ccccc2oc1=O [MMV553002]
Giardia (16 uM) Mean % inhibition [1]: 12%
Crypto (10 uM) Mean % inhibition [2]: 74%

NC(N)=Nc1ccc(-c2ccc(-c3ccc(N=C(N)N)cc3Cl)o2)c(Cl)c1 [MMV688179]
Giardia (16 uM) Mean % inhibition [1]: 11%
Crypto (10 uM) Mean % inhibition [2]: 56%

COC(=O)Nc1nc2ccc(C(=O)c3ccccc3)cc2[nH]1 [MMV003152, mebendazole, reference compound]
G. lamblia inhibition of parasite growth in the initial screen ([1]; 16 μM, 24 hours): did not show up in the screen
inhibition at 16 µM ([1]; Giardia duodenalis, read-out: Giardia (16 uM) Mean % inhibition): 26%
inhibition at 10 µM ([2]; Cryptosporidium parvum, HCT-8, read-out: Crypto (10 uM) Mean % inhibition): 91%

Cc1ccc(S(=O)(=O)n2cc(-c3ccnc(N)c3)c3cc(Br)cnc32)cc1 [MMV024114]
Giardia (16 uM) Mean % inhibition [1]: 78%
G. lamblia EC50 ([1]; luciferase expressing G. lamblia trophozoites, 24 hours, D-luciferin bioluminescence read-out): not potent
Crypto (10 uM) Mean % inhibition [2]: 86%

COC(=O)c1c(NC(=O)c2cc3ccccc3oc2=O)sc2c1CCN(Cc1ccccc1)C2 [MMV676480]
Giardia (16 uM) Mean % inhibition [1]: 7%
Crypto (10 uM) Mean % inhibition [2]: 63%

CNC(=O)CNc1nc(-c2ccccn2)nc2scc(-c3ccccc3)c12 [MMV1029203]
Giardia (16 uM) Mean % inhibition [1]: 4%
Crypto (10 uM) Mean % inhibition [2]: 21%

c1cncc(NCc2ccc(-c3cc4ccncc4cc3OC3CCNCC3)s2)c1 [MMV023969]
Giardia (16 uM) Mean % inhibition [1]: 11%
Crypto (10 uM) Mean % inhibition [2]: 25%

CN1CCC(c2cc(-c3ccncc3)c(-c3ccc(F)cc3)[nH]2)CC1 [MMV688703]
Giardia (16 uM) Mean % inhibition [1]: 18%
Crypto (10 uM) Mean % inhibition [2]: 84%

O=C(c1ccco1)N(CCCn1ccnc1)c1nc2c(Cl)cccc2s1 [MMV688936]
Giardia (16 uM) Mean % inhibition [1]: 31%
Crypto (10 uM) Mean % inhibition [2]: 6.36%

C[C@H](c1ccc2c(c1)CCCC2)N(C)c1ncc2c(N)nc(N)nc2n1 [MMV690103]
Giardia (16 uM) Mean % inhibition [1]: 49%
Crypto (10 uM) Mean % inhibition [2]: 78%

O=C(Nc1ccccc1-c1nc2c(C(=O)O)cccc2o1)c1ccccc1 [MMV676162]
Giardia (16 uM) Mean % inhibition [1]: 1.55%
Crypto (10 uM) Mean % inhibition [2]: 48%

CC1=Nc2ccc(Cl)cc2C(c2ccccc2)N1CCNC(=O)CN(C)C (centres unmarked) [MMV688410]
Giardia (16 uM) Mean % inhibition [1]: 20%
Crypto (10 uM) Mean % inhibition [2]: 62%

COc1ccc2nc(C)cc(OCC(=O)NCc3ccccc3)c2c1 [MMV687189]
Giardia (16 uM) Mean % inhibition [1]: 16%
Crypto (10 uM) Mean % inhibition [2]: 23%

N#CCN(CCCCN1CCN(c2ccc(F)cc2)CC1)C(=O)OCc1ccccc1 [MMV675997]
Giardia (16 uM) Mean % inhibition [1]: 29%
Crypto (10 uM) Mean % inhibition [2]: 56%

CC(C)(C)C(O)C(Oc1ccc(-c2ccccc2)cc1)n1cncn1 (centres unmarked) [MMV688942]
Giardia (16 uM) Mean % inhibition [1]: 40%
Crypto (10 uM) Mean % inhibition [2]: X* (Mean or standard deviation are negative but not significantly different from the control to be a growth promoter)

N=C(N)Nc1ccc(-c2ccc(-c3ccc(N=C(N)N)c(Cl)c3)o2)cc1Cl [MMV688271]
Giardia (16 uM) Mean % inhibition [1]: 53%
Crypto (10 uM) Mean % inhibition [2]: 86%

COc1ccccc1C(C)NCC(=O)Nc1cc(C(F)(F)F)ccc1Cl (centres unmarked) [MMV020321]
Giardia (16 uM) Mean % inhibition [1]: X* (Mean or standard deviation are negative but not significantly different from the control to be a growth promoter)
Crypto (10 uM) Mean % inhibition [2]: 83%

O=C(c1ccc(NCCO)cc1)C1C[C@H]1c1ccc(Cl)cc1 (some centres unmarked) [MMV676877]
Giardia (16 uM) Mean % inhibition [1]: 8%
Crypto (10 uM) Mean % inhibition [2]: 70%

CCOc1ccc(-c2nc(CNCCc3ccc(F)cc3)cs2)cc1 [MMV688938]
Giardia (16 uM) Mean % inhibition [1]: 65%
Crypto (10 uM) Mean % inhibition [2]: X* (Mean or standard deviation are negative but not significantly different from the control to be a growth promoter)

CN1CCN(c2nccc3[nH]c(-c4cccc(F)c4)cc23)CC1 [MMV393144]
Giardia (16 uM) Mean % inhibition [1]: 77%
Crypto (10 uM) Mean % inhibition [2]: 50%

CNCC[C@H](Oc1ccc(C(F)(F)F)cc1)c1ccccc1 [MMV001561]
Giardia (16 uM) Mean % inhibition [1]: 15%
Crypto (10 uM) Mean % inhibition [2]: X* (Mean or standard deviation are negative but not significantly different from the control to be a growth promoter)

COc1ccc(-c2cncc3ccc(C(=O)NCCCn4ccnc4)nc23)cc1 [MMV020670]
Giardia (16 uM) Mean % inhibition [1]: 19%
Crypto (10 uM) Mean % inhibition [2]: 42%

CCn1cnc2c(Nc3cc(F)cc(F)c3)nc(C#N)nc21 [MMV676881]
Giardia (16 uM) Mean % inhibition [1]: 9%
Crypto (10 uM) Mean % inhibition [2]: 53%

Cc1cc(Nc2ccc(C(F)(F)F)cc2)n2ccnc2n1 [MMV011229]
Giardia (16 uM) Mean % inhibition [1]: 35%
Crypto (10 uM) Mean % inhibition [2]: X* (Mean or standard deviation are negative but not significantly different from the control to be a growth promoter)

Cc1cc(Nc2ccncc2)n2nc(C)c(-c3ccccc3Cl)c2n1 [MMV016136]
Giardia (16 uM) Mean % inhibition [1]: X* (Mean or standard deviation are negative but not significantly different from the control to be a growth promoter)
Crypto (10 uM) Mean % inhibition [2]: 46%

C[C@H](C(N)=O)N1CCCC[C@H]1c1ccc(OCc2cccc(F)c2)cc1 [MMV676269]
Giardia (16 uM) Mean % inhibition [1]: 69%
Crypto (10 uM) Mean % inhibition [2]: 7%

FC(F)(F)c1cccc(-c2nc3c(NCc4ccncc4)nccc3[nH]2)c1 [MMV032967]
Giardia (16 uM) Mean % inhibition [1]: 26%
Crypto (10 uM) Mean % inhibition [2]: 27%

CCC(=O)Nc1ccccc1C(=O)Nc1ccccn1 [MMV202553]
Giardia (16 uM) Mean % inhibition [1]: 35%
Crypto (10 uM) Mean % inhibition [2]: 20%

CCNC(=O)C(C)Nc1nc(-c2cccnc2)nc2sc(C)c(C)c12 (centres unmarked) [MMV1037162]
Giardia (16 uM) Mean % inhibition [1]: 11%
Crypto (10 uM) Mean % inhibition [2]: 20%

COc1ccc(-c2cnc3cnc(-c4cccc(OC(C)C)c4)cn23)cc1 [MMV688270]
Giardia (16 uM) Mean % inhibition [1]: 10%
Crypto (10 uM) Mean % inhibition [2]: X* (Mean or standard deviation are negative but not significantly different from the control to be a growth promoter)

Brc1c(-c2ccc3c(c2)OCO3)nc2ncccn12 [MMV676377]
Giardia (16 uM) Mean % inhibition [1]: 40%
Crypto (10 uM) Mean % inhibition [2]: X* (Mean or standard deviation are negative but not significantly different from the control to be a growth promoter)

CC1=NN(c2nc3ccccc3s2)C(=O)C1Cc1cccc2ccccc12 (centres unmarked) [MMV676558]
Giardia (16 uM) Mean % inhibition [1]: 42%
Crypto (10 uM) Mean % inhibition [2]: 89%

CCCNC(=O)N1CCC2(CC1)CC(=O)c1cc(C)ccc1O2 [MMV085230]
Giardia (16 uM) Mean % inhibition [1]: 63%
Crypto (10 uM) Mean % inhibition [2]: 62%

CC(=O)NC[C@H]1CN(c2ccc(N3CCSCC3)c(F)c2)C(=O)O1 [MMV688756]
Giardia (16 uM) Mean % inhibition [1]: 22%
Crypto (10 uM) Mean % inhibition [2]: 39%
